From ChEMBL document CHEMBL1134266, “Design and pharmacology of quinuclidine derivatives as M2-selective muscarinic receptor ligands” (Bioorg Med Chem Lett, 2001)

Experiments:
Format in all cases: cell-based
[1] = molecular target: T1, Muscarinic acetylcholine receptor M1 (Homo sapiens, UniProt P11229); test: Affinity for Muscarinic acetylcholine receptor M1 expressed in CHO cells by [3H]NMS displacement.
T1 sequence (P11229 whole entry): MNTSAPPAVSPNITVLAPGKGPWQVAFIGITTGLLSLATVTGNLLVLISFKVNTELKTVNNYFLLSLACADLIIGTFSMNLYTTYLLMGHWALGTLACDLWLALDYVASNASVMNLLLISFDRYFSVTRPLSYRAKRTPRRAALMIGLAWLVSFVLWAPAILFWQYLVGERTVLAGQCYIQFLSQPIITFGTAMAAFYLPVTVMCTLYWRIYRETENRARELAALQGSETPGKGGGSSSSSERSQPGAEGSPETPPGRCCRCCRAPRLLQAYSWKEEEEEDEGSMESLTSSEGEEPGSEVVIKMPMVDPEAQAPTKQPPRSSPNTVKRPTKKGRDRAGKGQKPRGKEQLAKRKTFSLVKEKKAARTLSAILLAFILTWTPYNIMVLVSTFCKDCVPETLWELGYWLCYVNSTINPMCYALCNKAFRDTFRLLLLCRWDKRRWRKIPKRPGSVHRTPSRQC

[2] = molecular target: T2, Muscarinic acetylcholine receptor M5 (Homo sapiens, UniProt P08912); test: Affinity for Muscarinic acetylcholine receptor M5 expressed in CHO cells by [3H]NMS displacement.
T2 sequence (P08912 whole entry): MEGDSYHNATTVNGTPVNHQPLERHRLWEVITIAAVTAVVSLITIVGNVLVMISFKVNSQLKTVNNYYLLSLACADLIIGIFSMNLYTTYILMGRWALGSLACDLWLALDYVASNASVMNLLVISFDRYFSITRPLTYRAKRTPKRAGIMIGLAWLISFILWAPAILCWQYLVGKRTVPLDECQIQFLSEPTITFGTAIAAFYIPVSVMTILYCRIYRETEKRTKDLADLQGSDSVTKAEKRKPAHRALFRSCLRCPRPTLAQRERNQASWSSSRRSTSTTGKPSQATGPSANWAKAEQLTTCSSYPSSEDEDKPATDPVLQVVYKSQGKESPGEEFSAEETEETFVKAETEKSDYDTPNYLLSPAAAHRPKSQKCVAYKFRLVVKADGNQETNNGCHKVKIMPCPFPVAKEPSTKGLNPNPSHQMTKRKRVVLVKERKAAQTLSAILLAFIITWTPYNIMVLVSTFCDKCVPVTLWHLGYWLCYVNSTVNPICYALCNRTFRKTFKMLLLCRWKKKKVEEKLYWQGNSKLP

[3] = molecular target: T3, Muscarinic acetylcholine receptor M2 (Homo sapiens, UniProt P08172); test: Affinity for Muscarinic acetylcholine receptor M2 expressed in CHO cells by [3H]NMS displacement.
T3 sequence (P08172 whole entry): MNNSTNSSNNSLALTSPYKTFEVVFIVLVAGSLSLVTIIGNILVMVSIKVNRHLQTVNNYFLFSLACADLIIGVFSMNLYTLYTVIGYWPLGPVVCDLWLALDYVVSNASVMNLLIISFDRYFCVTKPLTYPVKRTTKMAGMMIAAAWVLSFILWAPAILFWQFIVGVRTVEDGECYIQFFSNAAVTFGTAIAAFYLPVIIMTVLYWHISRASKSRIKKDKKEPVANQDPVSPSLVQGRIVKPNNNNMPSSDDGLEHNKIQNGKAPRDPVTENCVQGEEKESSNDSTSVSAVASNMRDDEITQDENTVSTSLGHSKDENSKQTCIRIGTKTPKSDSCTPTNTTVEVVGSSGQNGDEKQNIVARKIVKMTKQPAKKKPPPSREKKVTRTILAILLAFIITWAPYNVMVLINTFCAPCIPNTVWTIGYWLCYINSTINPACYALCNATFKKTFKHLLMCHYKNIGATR

[4] = molecular target: T4, Muscarinic acetylcholine receptor M4 (Homo sapiens, UniProt P08173); test: Affinity for Muscarinic acetylcholine receptor M4 expressed in CHO cells by [3H]NMS displacement.
T4 sequence (P08173 whole entry): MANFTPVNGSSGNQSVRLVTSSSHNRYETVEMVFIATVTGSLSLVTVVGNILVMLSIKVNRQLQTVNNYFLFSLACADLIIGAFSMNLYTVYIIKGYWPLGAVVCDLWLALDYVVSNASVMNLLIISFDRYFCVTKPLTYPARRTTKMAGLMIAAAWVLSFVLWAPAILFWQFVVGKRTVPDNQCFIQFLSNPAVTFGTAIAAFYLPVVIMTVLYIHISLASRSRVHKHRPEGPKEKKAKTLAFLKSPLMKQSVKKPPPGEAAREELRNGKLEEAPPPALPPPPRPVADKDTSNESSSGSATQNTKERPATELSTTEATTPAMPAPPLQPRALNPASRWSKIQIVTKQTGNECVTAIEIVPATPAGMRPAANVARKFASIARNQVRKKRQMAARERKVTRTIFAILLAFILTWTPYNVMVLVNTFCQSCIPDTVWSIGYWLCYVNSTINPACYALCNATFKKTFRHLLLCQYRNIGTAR

[5] = molecular target: Muscarinic acetylcholine receptor M3 (Homo sapiens, UniProt P20309); test: Affinity for Muscarinic acetylcholine receptor M3 expressed in CHO cells by [3H]-NMS displacement.
Sequence of Muscarinic acetylcholine receptor M3 (P20309 whole entry): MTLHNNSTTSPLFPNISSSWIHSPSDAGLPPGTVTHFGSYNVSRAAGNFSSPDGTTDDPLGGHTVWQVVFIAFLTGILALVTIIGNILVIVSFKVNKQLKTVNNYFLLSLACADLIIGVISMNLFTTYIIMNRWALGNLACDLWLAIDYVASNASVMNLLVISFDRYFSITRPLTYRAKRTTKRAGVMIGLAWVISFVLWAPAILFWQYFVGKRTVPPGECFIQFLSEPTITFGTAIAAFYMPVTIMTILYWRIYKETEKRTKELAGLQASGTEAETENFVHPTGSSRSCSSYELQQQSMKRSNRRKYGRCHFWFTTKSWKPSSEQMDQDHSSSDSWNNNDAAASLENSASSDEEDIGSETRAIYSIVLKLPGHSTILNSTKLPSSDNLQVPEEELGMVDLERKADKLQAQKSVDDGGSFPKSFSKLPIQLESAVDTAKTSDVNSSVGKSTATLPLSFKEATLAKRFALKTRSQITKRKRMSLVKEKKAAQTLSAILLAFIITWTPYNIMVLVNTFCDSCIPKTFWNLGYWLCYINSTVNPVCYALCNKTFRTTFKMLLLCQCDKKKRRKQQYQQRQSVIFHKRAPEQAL

Row | Compound | Ki [1] [µM] | Ki [2] [µM] | Ki [3] [µM] | Ki [4] [µM] | Ki [5] [µM]
1 | CC1OC(=O)[C@H]2C[C@H]3CCCC[C@@H]3[C@@H](/C=C/C3CCCC(C)N3C)[C@@H]12 (single isomer, unassigned) [HIMBACINE] | 0.107 | 0.49 | 0.01 | – | –
2 | CN(C)CCOC(=O)C1=C/C(=C\c2ccncc2)c2ccccc21 | 12 | 26.9 | 10.5 | 14.8 | 15.1
3 | CN(C)CCC1=C/C(=C\c2cccnc2)c2ccccc21 | 18.6 | 26.9 | 15.1 | 22.4 | 27.5
4 | CC(C1=C(CCN(C)C)Cc2ccccc21)c1ccccn1 (stereo not drawn) | 0.263 | 0.794 | 0.0447 | 0.407 | 0.191
5 | CN(C)CCNC(=O)C1=C/C(=C\c2ccncc2)c2ccccc21 | 24 | 53.7 | 15.8 | 24.5 | 45.7
6 | CN(C)CCNC(=O)C1=C/C(=C\c2ccccn2)c2ccccc21 | 26.9 | 55 | 41.7 | 33.9 | 61.7
7 | CN1CCN(C(=O)C2=C/C(=C\c3ccncc3)c3ccccc32)CC1 | 29.5 | 55 | 38.9 | 89.1 | 97.7
8 | CN(C)CCNC(=O)C1=C/C(=C\c2cccnc2)c2ccccc21 | 28.2 | 66.1 | 29.5 | 21.4 | 40.7
9 | CN(C)CCOC(=O)C1=C/C(=C\c2ccccn2)c2ccccc21 | 7.08 | 17.8 | 12 | 12.3 | 14.1
10 | CN(C)CCN(C)C(=O)C1=C/C(=C\c2cccnc2)c2ccccc21 | 49 | 53.7 | 14.1 | 55 | 72.4
11 | CN(C)CCN(C)C(=O)C1=C/C(=C\c2ccccn2)c2ccccc21 | 21.9 | 52.5 | 9.12 | 46.8 | 63.1
12 | CN(C)CCOC(=O)C1=C/C(=C\c2cccnc2)c2ccccc21 | 11.5 | 30.2 | 7.41 | 12.6 | 10
13 | CN(C)CCC1=C/C(=C\c2ccccn2)c2ccccc21 | 9.55 | 19.1 | 12.6 | 12 | 21.4
